# Experimental data: patent US20080102451A1, “Companion diagnostic assays for endothelin receptor antagonists” (Abbott Laboratories, priority 2006, published 2008)
# Tests used:
# [1] = test system: OPG; test: ELISA for OPG secreted by MC3T3 osteoblast cells; format: cell-based, mouse; conditions: MC3T3 cell line
# From the text: (§1) Mouse MC3T3 pre-osteoblastic cells (subclone 4) were purchased from ATCC (Manassis, Va.) and propagated in αMEM media without ascorbic acid (Invitrogen, Carlsbad, Calif.) supplemented with 10% FBS (Invitrogen). Human Mesenchymal Stem Cells (MSCs) were purchased from Cambrex (Walkersville, Md.) and propagated according in MSCGM™ media (Cambrex). To initiate differentiation of the MSC into human osteoblasts, the growth media was replaced by osteogenic differentiation medium (OGM, Cambrex).
# (§2) Mouse preosteoblastic MC3T3 cells as well as primary human osteoblasts were treated with ET, from Sigma (St. Louis, Mo.), for 2, 4, and 6 hours in the absence or presence of the ETa receptor antagonist ABT-627, from Abbott Laboratories (Abbott Park, Ill.). The drug was added 1 hour prior to the addition of ET.
# (§3) Mouse MC3T3 osteoblast cells were propagated as set out above, and at times indicated were harvested and spun at 250×g for 10 minutes at room temperature. The clarified supernatants were aliquoted and frozen until analyzed. 200 microliters of each sample was tested in quadruplicate by commercially available ELISA assay kits for PAI-1 (Molecular Innovations, Southfield, Mich.), OPG (Biomedica, San Diego, Calif.) and IL-6 (Ray Biotech, Norcross, Ga.). The ELISA tests were performed according to the manufacturer's instructions. […]
# [2] = test system: Mouse MC3T3 pre-osteoblastic cells; test: Microarray analysis of gene expression in ET-treated mouse osteoblasts; format: cell-based; conditions: for # Genes Blocked by ABT-627 (of genes down-regulated by ET) / # Genes Blocked by ABT-627 (of genes induced by ET): drug added 1 hour prior to ET
# From the text: as §1, §2
# (§4) Total RNA was extracted from the treated cell lines and purified on RNeasy columns (Qiagen, Valencia, Calif.). Labeled cRNA was prepared according to the microarray manufacturer Affymetrix's protocol and hybridized to either mouse 430A 2.0 or human U133A 2.0 arrays (Affymetrix, Santa Clara, Calif.). Gene expression fold changes for each treatment were calculated by combining three biological replicates for each treatment using the Rosetta Resolver's Affymetrix error model software and building a ratio from the resulting values. All genes regulated ≧1.5-fold with a p-value of ≦0.01 were retained for further analysis. Conventional two-dimensional clustering was then performed by using the agglomerative hierarchical clustering algorithm. The Euclidean distance was used as the similarity metric.
# [3] = test system: IL-6; test: ELISA for IL-6 secreted by MC3T3 osteoblast cells; format: cell-based, mouse; conditions: MC3T3 cell line
# From the text: as §1, §2, §3
# [4] = test system: PAI-1; test: ELISA for PAI-1 secreted by MC3T3 osteoblast cells; format: cell-based, mouse; conditions: MC3T3 cell line
# From the text: as §1, §2, §3
# [5] = test system: primary human osteoblasts; test: Microarray analysis of gene expression in ET-treated primary human osteoblasts; format: cell-based; conditions: ET-1 treatment
# From the text: as §1, §2
# as §4, with “All genes regulated ≧1.5-fold with a p-value of ≦0.01 were retained for further analysis. Conventional two-dimensional clustering was then performed by using the agglomerative hierarchical clustering algorithm. The Euclidean distance was used as the similarity metric.” left out
# [6] = test system: metastatic hormone-refractory prostate cancer; conditions: patients with metastatic hormone-refractory prostate cancer; Nelson et al. 2003; cited from earlier work
# [7] = test system: osteoblastic metastases; conditions: mice injected with ET-1-secreting breast cancer cell lines; Yin et al. 2003; cited from earlier work
# [8] = mouse osteoblasts, time point 4 hr
# [9] = mouse osteoblasts, time point 6 hr
# [10] = endothelin in the presence of ABT-627
smiles,measurement,setting,value
CC[C@H](C)[C@H](NC(=O)[C@H](CC(=O)O)NC(=O)[C@H](CC(C)C)NC(=O)[C@H](Cc1c[nH]cn1)NC(=O)[C@@H]1CSSC[C@H](N)C(=O)N[C@@H](CO)C(=O)N[C@H]2CSSC[C@H](NC(=O)[C@H](CCC(=O)O)NC(=O)[C@H](CCCCN)NC(=O)[C@H](CC(=O)O)NC(=O)[C@H](CCSC)NC(=O)[C@H](CC(C)C)NC(=O)[C@H](CO)NC(=O)[C@H](CO)NC2=O)C(=O)N[C@@H](C(C)C)C(=O)N[C@@H](Cc2ccc(O)cc2)C(=O)N[C@@H](Cc2ccccc2)C(=O)N1)C(=O)N[C@H](C(=O)N[C@@H](Cc1c[nH]c2ccccc12)C(=O)O)[C@@H](C)CC [ET],Expression of OPG (ELISA),[1]; treatment with endothelin,strongly induced
same,"Expression of genes coding for secreted proteins (PAI-1, uPA, TGFbeta2, IL-6, IL-8)","[2]; mouse osteoblasts, ET-1 treatment",strongly upregulated
same,# Genes Down-regulated by ET,"[2]; mouse osteoblasts, time point 2 hr",423
same,# Genes Induced by ET,"[2]; mouse osteoblasts, time point 2 hr, regulated >=1.5-fold, p<=0.01",608
same,# Genes Down-regulated by ET,[2]; [8],295
same,# Genes Induced by ET,[2]; [8],472
same,# Genes Down-regulated by ET,[2]; [9],95
same,# Genes Induced by ET,[2]; [9],194
same,"Expression of apoptosis suppression genes (Nur77, Flt1, NFATc1)","[2]; osteoblastic cells, ET treatment",induced
same,Expression of IL-6 (ELISA),[3]; treatment with endothelin,strongly induced
same,Expression of PAI-1 (ELISA),[4]; treatment with endothelin,strongly induced
same,"Expression of genes coding for secreted proteins (PAI-1, uPA, TGFbeta2, IL-6, IL-8)",[5],strongly upregulated
"CCCCN(CCCC)C(=O)CN1C[C@H](c2ccc3c(c2)OCO3)[C@@H](C(=O)O)[C@@H]1c1ccc(OC)cc1 [ABT-627, (2R,3R,4S)-(+)-2-(4-Methoxyphenyl)-4-(1,3-benzodioxol-5-yl)-1-(N,N-di(n-butyl)aminocarbonylmethyl)-pyrrolidine-3-carboxylic acid]",Endothelin-induced expression of OPG (ELISA),[1]; [10],substantial suppression
same,"Induction by ET-1 of osteoblastic maturation genes (OPG, COX-2, Dmp1, Tgfbi, CTGF, Klf10)","[2]; osteoblastic cells, pre-treatment with ABT-627",blocked
same,"Induction by ET of apoptosis suppression genes (Nur77, Flt1, NFATc1)","[2]; osteoblastic cells, with ABT-627",the induction was blocked
same,Genes Blocked by ABT-627 as percent of genes induced by ET,[2]; time point 2 hr,(96%)
same,# Genes Blocked by ABT-627 (of genes down-regulated by ET),[2]; time point 2 hr,403
same,# Genes Blocked by ABT-627 (of genes induced by ET),[2]; time point 2 hr,581
same,Genes Blocked by ABT-627 as percent of genes induced by ET,[2]; time point 4 hr,(83%)
same,# Genes Blocked by ABT-627 (of genes down-regulated by ET),[2]; time point 4 hr,262
same,# Genes Blocked by ABT-627 (of genes induced by ET),[2]; time point 4 hr,390
same,Genes Blocked by ABT-627 as percent of genes induced by ET,[2]; time point 6 hr,(97%)
same,# Genes Blocked by ABT-627 (of genes down-regulated by ET),[2]; time point 6 hr,93
same,# Genes Blocked by ABT-627 (of genes induced by ET),[2]; time point 6 hr,189
same,Effect of pre-treatment on ET gene induction events,"[2]; two-dimensional hierarchical clustering, all three timepoints",abrogated almost all of these gene induction events
same,Gene expression changes caused by the antagonist alone,[2]; without ET,very few gene expression changes
same,Time to disease progression,[6],extended time to disease progression
same,Endothelin-induced expression of IL-6 (ELISA),[3]; [10],substantial suppression
same,Endothelin-induced expression of PAI-1 (ELISA),[4]; [10],substantial suppression
same,Metastatic growth,[7],suppressed the metastatic growth
